By melting point is commonly meant the temperature, or range, at which the solid turns liquid. In turn, `COc1ccc(N2CCN(CC[C@H]3CC[C@H](NC(=O)N(C)C)CC3)CC2)c(Cl)c1Cl` gave a melting point of 196 to 198 °C.
With `Cc1cccc(NC(=O)c2cc(C#N)cc(C)n2)c1` the figure was 160 °C.
`CCOC(=O)c1cc([N+](=O)[O-])c(=O)[nH]c1C(=O)OCC` had a melting point of 144 to 145 °C.
The figure for `COC(=O)CCc1cc2c(OC)cccc2n1Cc1ccccc1` is 195 to 196 °C; for `CCn1c(=O)n(C)c(=O)n(-c2cc(C(=O)OC)c(Cl)cc2F)c1=O` it is 48 to 49 °C.
With `Cc1c(/C=C/C(=O)c2ccc3ccccc3c2)ncn1C(c1ccccc1)(c1ccccc1)c1ccccc1` the figure was 194 to 197 °C; with `COC(=O)C1=C(C)NC(C)=C(C(=O)OCCCCCCS(=O)c2nc(C)cs2)C1c1cccc([N+](=O)[O-])c1` (stereo not given), 81 to 83 °C.
As to `COC(=O)CCn1c(=O)n(CCN2CCN(c3ccc(OC)cc3)CC2)c(=O)c2cscc21`, the melting point lay in the range of 151 to 152 °C.
Regarding `CN(Cc1ccc(NC(=O)C2=Cc3cc(-c4cccc(C(F)(F)F)c4)ccc3S(=O)(=O)CC2)cc1)C1CCOCC1`, the melting point was in the range of 236 to 238 °C.
With `COC(=O)c1cc(Nc2ccccc2)c(Nc2ccccc2)cc1C(=O)OC` the figure was 178 °C; with `C[C@@H](c1ccc(F)cc1)N1CCN(c2cc(Oc3cc(F)cc4[nH]c(=O)c(N)nc34)ncn2)CC1`, 288 °C; with `Cc1c(Br)cc2c(c1C)OCC2c1ccc(C(C)C)cc1` (stereo not given), 114 to 115 °C.
In turn, `O=[N+]([O-])c1cc(I)cnc1Cl` returned a melting point of 77 to 79 °C.
With `CC(C)(C)OC(=O)c1ccc(OCCNC(=O)C2Cc3ccccc3N2S(=O)(=O)c2ccc(-c3ccc(F)cc3OC(F)F)cc2)cc1` (stereo not given) the figure was 60 to 70 °C.
Compound `Cc1ccc(N2C(=O)C(O)=C(C(=O)c3ccc(C(C)(C)C)cc3)C2c2ccc(OC(F)(F)F)cc2)nn1` (stereo not given) came in with a melting point of 262 to 265 °C.
`COc1ccc(C(=O)c2c(N)sc3c2CCC3)c2ccccc12` had a melting point of 214 to 215 °C.
In the case of `COc1ccc(S(=O)(=O)N(CC(N)=O)c2c(CCc3ccccc3)cccc2OC)cc1OC`, the melting point is 244 °C.
The figure for `Cc1cc(-n2ccnc2)c2cccc(OCc3c(Cl)ccc(S(=O)(=O)N4CCC[C@H]4C(=O)NCC4CCN(C(=O)OC(C)(C)C)CC4)c3Cl)c2n1` is 100 °C; for `Cc1ccc(Oc2cccc(-c3nnc(Nc4ccc(Cl)c(Cl)c4)s3)c2)cc1` it is 210 to 211 °C.
The figure for `Cc1oc(C(=O)NCc2ccc3c(c2)OCO3)c(C)c1-c1nc2ccc(C(=O)c3ccccc3)cc2[nH]1` is 122 to 125 °C.
The figure for `CCCCn1c(=O)c2c(ncn2S(=O)(=O)CC23CCC(CC2=O)C3(C)C)n(CCCC)c1=O` (stereo not given) is 55 to 56 °C.
For `S=C(NCc1cccnc1)c1[nH]c2ccc(Cl)cc2c1-c1ccccc1`, the melting point is 240 to 241 °C.
The figure for `CC(C)OC(=O)c1cc(-n2c(=O)c(F)c(CF)n(C)c2=O)c(F)cc1Cl` is 85 to 89 °C.
With `O=C(N[C@H]1C[C@H](C(=O)O)Nc2cc(Cl)cc(Cl)c21)OCc1ccccc1` (relative stereo) the figure was 169 °C; with `O=C1OC(CCCCN2CCN(c3ncccn3)CC2)CN1c1ccccc1` (stereo not given), 94 to 96 °C; with `O=CNCc1cccc(-c2ccc(Br)cc2)n1`, 115 to 119 °C.
The compound `COc1ccc(CCc2ccccn2)cc1OCCCCCc1ccccc1` displayed a melting point of 59 to 62 °C.
With `O=C(O)c1c(F)cc(F)c(F)c1C(=O)O` the figure was 153 to 155 °C.
As to `NC1CCc2cc(Cl)ccc2NC1=O` (stereo not given), the melting point was in the range of 170 to 171 °C.
The figure for `Cc1cnc2nc(SCc3ccccc3)nn2c1` is 254 to 256 °C.
With `Cc1cc(Cc2nnc(Nc3cc(Br)cc(C(F)(F)F)c3)c3ccccc23)ccn1` the figure was 122 to 123 °C.
`O=c1c(OCCCCl)c(-c2ccc(OCc3ccccc3)c(OCc3ccccc3)c2)oc2cc(OCc3ccccc3)ccc12` registered a melting point of 136 to 137 °C.
With `COc1cc(C(=O)N(C(C)C)C2CCCCC2)ccc1Cn1c(CO)nc2ncccc21` the figure was 117 to 119 °C.
The figure for `FC(F)(F)Sc1cc(-c2ccccc2)c(-c2ccccc2)[nH]1` is 58 to 59 °C; for `O=C(C=Cc1cc(O)c(O)c([N+](=O)[O-])c1)c1ccccc1O` it is 231 to 234 °C; for `C=Cc1ccc(C(=O)Oc2ccc(C(=O)O)cc2)cc1C12CC3CC(CC(C3)C1)C2` it is 86 to 87 °C.
`O=c1c2c(Cc3ccc(O)cc3)n[nH]c2c2cccnc2n1-c1ccccc1`: the melting point lay in the range of 316 to 317 °C.
The figure for `O=C1N(C/C=C/C=C/c2ccccc2Cl)CCN1c1cccnc1` is 130 to 133 °C; for `O=C1Nc2ccc(S(=O)(=O)N3CCC[C@H]3COc3ccccc3)cc2C1=O` it is 204 to 206 °C; for `O=C(NCC12CC3CC(CC(C3)C1)C2)c1cc(-c2ccc(Cl)cc2C(=O)O)ccc1Cl` it is 207 to 210 °C.
The figure for `COC(=O)C1CCN2C(=O)C(=O)c3cccc1c32` (stereo not given) is 135 to 136 °C.
`COc1cc(C(O)(C(F)(F)F)C(F)(F)F)cc(Br)c1N(S(C)(=O)=O)S(C)(=O)=O` showed a melting point of 193 °C.
The figure for `C(=C\c1nc2ccccc2n1-c1ccncc1)/c1ccoc1` is 172 °C; for `CCN(CC)c1ccc(C2(N(c3ccccc3)c3ccccc3)OC(=O)c3nccnc32)cc1` (stereo not given) it is 140 to 143 °C; for `O=C(Nc1nc(C2CC2)no1)C(c1ccccc1)c1ccccc1` it is 163 °C.
The compound `Oc1cccc(C2CCCN(CCCc3ccccc3)C2)c1` (stereo not given) showed a melting point of 119 to 120 °C.
With `CC#CCOc1ccc(S(=O)(=O)C(C(=O)NO)C2CCNCC2)cc1` (stereo not given) the figure was 140 °C.
With `Nc1nc2ccc(Oc3ccc4c(c3)OCO4)cc2s1` the figure was 154 to 157 °C; with `CC(=O)N1CCC(OC(CO)c2ccccc2)CC1` (stereo not given), 92 to 94 °C; with `O=C(c1cc2ccccc2cn1)N(O)CCc1ccccc1`, 90 to 95 °C.
As for `O=c1[nH]c2ccc(Cl)cc2c(-c2ccccc2)[n+]1[O-]`, the melting point is 267 to 269 °C.
`CN1CNC(=S)N(c2ccccc2)C1` yielded a melting point of 175 to 176 °C.
With `CN(C(=O)c1ccc2nonc2c1)C1CCOCC1` the figure was 160 to 162 °C; with `N#Cc1ccc(OCc2ccc(C=Cc3ccncc3)cc2)cc1`, 149 to 150 °C.
Consider `CNC(=C[N+](=O)[O-])NCCCOc1cccc(CCCN(C)C)c1`, for which the melting point is 59.5 to 61 °C.
With `COC(CNC(=O)c1ccc(N2CCN(C(=O)c3ccccc3C(F)(F)F)CC2)nn1)C(C)(C)C` (stereo not given) the figure was 65 to 68 °C; with `CCC(O)(Cn1cncn1)c1ccc(Oc2ccc(Cl)cc2)cc1Cl` (stereo not given), 140 to 142 °C.
The figure for `Cc1c(N)c(C)c(C(C)C)c2c1CC(C)(CI)O2` (stereo not given) is 84 to 86 °C.
On to `O=C=Nc1c(Cl)c(Cl)cc(Cl)c1Cl`, for which the melting point is 62.5 to 63.5 °C.
The compound `Cc1ccc2c(c1)N(CC(=O)c1ccccc1C)C(=O)C(NC(=O)Nc1ccc(Cl)c(C(=O)O)c1)CN2C(=O)C(C)(C)C` (stereo not given) came in with a melting point of 178 to 180 °C.
